Test results as given in patent US8859584B2, “TRPV1 antagonists” (AbbVie Inc., priority 2011, dated 2014).

Experiments:
[1] = target: T1, human TRPV1 (Homo sapiens, UniProt Q8NER1); experiment: Capsaicin Activation Assay (FLIPR intracellular Ca2+, recombinant HEK293 cells); assay type: cell-based; conditions: recombinant HEK293 cells expressing hTRPV1; 50 nM capsaicin; read-out: human TRPV1 capsaicin IC50
T1 construct: expressed in transfected cells

[2] = target: T1, human TRPV1; experiment: Acid Activation Assay (pH 5.0, FLIPR intracellular Ca2+, recombinant HEK293 cells); assay type: cell-based; conditions: percentage of maximal pH 5.0-induced response remaining; HEK293 hTRPV1; max concentration 37.5 μM
In short: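 HEK293 cells stably expressing recombinant hTRPV1 were loaded with calcium dye for 90-120 min at 25° C and pre-treated with compound for 3 min before a pH 5.0 (DPBS/MES) challenge. Peak FLIPR fluorescence over baseline is given as percentage of the maximal pH 5.0-induced response.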

T1 sequence (Q8NER1 whole entry): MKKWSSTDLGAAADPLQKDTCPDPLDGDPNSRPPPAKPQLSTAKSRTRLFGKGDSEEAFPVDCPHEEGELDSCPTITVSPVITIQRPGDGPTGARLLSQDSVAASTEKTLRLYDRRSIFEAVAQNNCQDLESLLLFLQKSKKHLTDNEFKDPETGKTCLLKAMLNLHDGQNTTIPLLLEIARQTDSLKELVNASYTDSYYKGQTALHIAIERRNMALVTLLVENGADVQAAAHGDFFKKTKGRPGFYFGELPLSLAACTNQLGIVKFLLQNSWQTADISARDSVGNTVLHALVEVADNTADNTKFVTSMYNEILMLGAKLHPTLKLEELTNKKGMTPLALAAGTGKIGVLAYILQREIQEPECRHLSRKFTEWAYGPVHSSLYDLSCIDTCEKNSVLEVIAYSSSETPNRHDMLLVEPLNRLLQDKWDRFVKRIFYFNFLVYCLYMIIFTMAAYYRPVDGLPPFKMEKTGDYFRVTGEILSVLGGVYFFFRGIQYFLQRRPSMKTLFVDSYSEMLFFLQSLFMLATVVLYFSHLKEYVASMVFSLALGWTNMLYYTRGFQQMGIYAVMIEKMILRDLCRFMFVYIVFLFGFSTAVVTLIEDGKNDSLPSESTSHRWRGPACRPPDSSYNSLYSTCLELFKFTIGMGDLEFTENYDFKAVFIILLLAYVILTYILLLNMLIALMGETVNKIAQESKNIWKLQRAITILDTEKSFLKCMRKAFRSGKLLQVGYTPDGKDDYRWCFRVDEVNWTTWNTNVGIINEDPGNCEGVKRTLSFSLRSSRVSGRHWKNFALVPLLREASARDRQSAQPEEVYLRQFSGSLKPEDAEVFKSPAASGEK

Row | Compound | IC50 [1] | human TRPV1 H+ (max % remain) [2]
1 | O=C(Nc1cccc2c1C[C@@H](O)C2)N[C@@H]1CC(CF)(CF)Oc2ccccc21 [Example 86, 1-[(4R)-2,2-bis(fluoromethyl)-3,4-dihydro-2H-chromen-4-yl]-3-[(2S)-2-hydroxy-2,3-dihydro-1H-inden-4-yl]urea] | 1600 nM | 46%
2 | C[C@@]1(CF)C[C@@H](NC(=O)Nc2cccc3c2C[C@H](O)C3)c2ccc(Cl)cc2O1 [Example 16, 1-[(2S,4R)-7-chloro-2-(fluoromethyl)-2-methyl-3,4-dihydro-2H-chromen-4-yl]-3-[(2R)-2-hydroxy-2,3-dihydro-1H-inden-4-yl]urea] | 37 nM | 57%
3 | O=C(Nc1ccc(F)c2c1C[C@@H](O)C2)N[C@@H]1CC(CF)(CF)Oc2c(F)cccc21 [Example 170, 1-[(4R)-8-fluoro-2,2-bis(fluoromethyl)-3,4-dihydro-2H-chromen-4-yl]-3-[(2R)-7-fluoro-2-hydroxy-2,3-dihydro-1H-inden-4-yl]urea] | 3500 nM | 58%
4 | O=C(Nc1c(F)ccc2c1C[C@H](O)C2)N[C@@H]1CC(CF)(CF)Oc2cc(Cl)ccc21 [Example 175, 1-[(4R)-7-chloro-2,2-bis(fluoromethyl)-3,4-dihydro-2H-chromen-4-yl]-3-[(2R)-5-fluoro-2-hydroxy-2,3-dihydro-1H-inden-4-yl]urea] | 470 nM | 37%
5 | CC(C)(C)c1cccc2c1OCC[C@H]2NC(=O)Nc1cccc2c1C[C@H](O)C2 [Example 51, 1-[(4R)-8-tert-butyl-3,4-dihydro-2H-chromen-4-yl]-3-[(2R)-2-hydroxy-2,3-dihydro-1H-inden-4-yl]urea] | 18 nM | 70%
6 | COc1ccc2c(c1)OC(c1ccc(Cl)cc1)CC2NC(=O)Nc1cccc2c1CC(O)C2 (centres unmarked) [Example 122, 1-[2-(4-chlorophenyl)-7-methoxy-3,4-dihydro-2H-chromen-4-yl]-3-(2-hydroxy-2,3-dihydro-1H-inden-4-yl)urea] | 710 nM | 14%
7 | 1-[(4R)-2,2-dimethyl-8-(trifluoromethoxy)-3,4-dihydro-2H-chromen-4-yl]-3-[(2R)-7-fluoro-2-hydroxy-2,3-dihydro-1H-inden-4-yl]urea [Example 172] | 32 nM | 47%
8 | O=C(Nc1cccc2c1C[C@H](O)C2)N[C@H]1COc2ccc(Cl)cc2C1 [Example 89, 1-[(3R)-6-chloro-3,4-dihydro-2H-chromen-3-yl]-3-[(2R)-2-hydroxy-2,3-dihydro-1H-inden-4-yl]urea] | 560 nM | 91%
9 | O=C(Nc1cccc2c1C[C@@H](O)C2)N[C@@H]1CC(CF)(CF)Oc2c(Cl)cccc21 [Example 75, 1-[(4R)-8-chloro-2,2-bis(fluoromethyl)-3,4-dihydro-2H-chromen-4-yl]-3-[(2S)-2-hydroxy-2,3-dihydro-1H-inden-4-yl]urea] | 120 nM | 40%
10 | COc1ccc(C2CC(NC(=O)Nc3cccc4c3CC(O)C4)c3ccccc3O2)cc1OC (centres unmarked) [Example 113, 1-[2-(3,4-dimethoxyphenyl)-3,4-dihydro-2H-chromen-4-yl]-3-(2-hydroxy-2,3-dihydro-1H-inden-4-yl)urea] | > 38000 nM | 74%
11 | CC1(C)C[C@@H](NC(=O)Nc2ccc(F)c3c2C[C@@H](O)C3)c2cc(F)ccc2O1 [Example 165, 1-[(4R)-6-fluoro-2,2-dimethyl-3,4-dihydro-2H-chromen-4-yl]-3-[(2R)-7-fluoro-2-hydroxy-2,3-dihydro-1H-inden-4-yl]urea] | 2600 nM | 49%
12 | O=C(Nc1cccc2c1C[C@H](O)C2)N[C@H]1CC(CF)(CF)Oc2cc(Cl)ccc21 [Example 97, 1-[(4S)-7-chloro-2,2-bis(fluoromethyl)-3,4-dihydro-2H-chromen-4-yl]-3-[(2R)-2-hydroxy-2,3-dihydro-1H-inden-4-yl]urea] | 1100 nM | 58%
13 | CC1(C)C[C@H](NC(=O)Nc2cccc3c2C[C@H](O)C3)c2cc(F)ccc2O1 [Example 104, 1-[(4S)-6-fluoro-2,2-dimethyl-3,4-dihydro-2H-chromen-4-yl]-3-[(2R)-2-hydroxy-2,3-dihydro-1H-inden-4-yl]urea] | > 38000 nM | 100%
14 | O=C(Nc1cccc2c1C[C@@H](O)C2)N[C@H]1CC2(CCC2)Oc2ccc(F)cc21 [Example 102, 1-[(4S)-6-fluoro-3,4-dihydrospiro[chromene-2,1′-cyclobutan]-4-yl]-3-[(2S)-2-hydroxy-2,3-dihydro-1H-inden-4-yl]urea] | 2800 nM | 63%
15 | CC1(C)C[C@@H](NC(=O)Nc2ccc(F)c3c2C[C@@H](O)C3)c2ccc(Cl)cc2O1 [Example 167, 1-[(4R)-7-chloro-2,2-dimethyl-3,4-dihydro-2H-chromen-4-yl]-3-[(2R)-7-fluoro-2-hydroxy-2,3-dihydro-1H-inden-4-yl]urea] | 200 nM | 51%
16 | O=C(Nc1cccc2c1C[C@@H](O)C2)N[C@@H]1CC(CF)(CF)Oc2cc(Cl)ccc21 [Example 24, 1-[(4R)-7-chloro-2,2-bis(fluoromethyl)-3,4-dihydro-2H-chromen-4-yl]-3-[(2S)-2-hydroxy-2,3-dihydro-1H-inden-4-yl]urea] | 27 nM | 6%
17 | O=C(Nc1cccc2c1C[C@H](O)C2)N[C@@H]1CC(CF)(CF)Oc2ccccc21 [Example 69, 1-[(4R)-2,2-bis(fluoromethyl)-3,4-dihydro-2H-chromen-4-yl]-3-[(2R)-2-hydroxy-2,3-dihydro-1H-inden-4-yl]urea] | 400 nM | 91%
18 | O=C(Nc1cccc2c1C[C@@H](O)C2)N[C@@H]1CC(CF)(CF)Oc2c(F)cccc21 [Example 87, 1-[(4R)-8-fluoro-2,2-bis(fluoromethyl)-3,4-dihydro-2H-chromen-4-yl]-3-[(2S)-2-hydroxy-2,3-dihydro-1H-inden-4-yl]urea] | 1200 nM | 50%
19 | CC1(C)C[C@@H](NC(=O)Nc2ccc(F)c3c2C[C@@H](O)C3)c2ccc(F)c(F)c2O1 [Example 171, 1-[(4R)-7,8-difluoro-2,2-dimethyl-3,4-dihydro-2H-chromen-4-yl]-3-[(2R)-7-fluoro-2-hydroxy-2,3-dihydro-1H-inden-4-yl]urea] | 400 nM | 47%
20 | O=C(Nc1cccc2c1CC(O)C2)NC1CC(c2ccc(C(F)(F)F)cc2)Oc2ccccc21 (centres unmarked) [Example 121, 1-(2-hydroxy-2,3-dihydro-1H-inden-4-yl)-3-{2-[4-(trifluoromethyl)phenyl]-3,4-dihydro-2H-chromen-4-yl}urea] | 680 nM | 57%
21 | O=C(Nc1cccc2c1C[C@H](O)C2)N[C@@H]1CC(CF)(CF)Oc2c(F)cccc21 [Example 70, 1-[(4R)-8-fluoro-2,2-bis(fluoromethyl)-3,4-dihydro-2H-chromen-4-yl]-3-[(2R)-2-hydroxy-2,3-dihydro-1H-inden-4-yl]urea] | 220 nM | 99%
22 | O=C(Nc1cccc2c1C[C@@H](O)C2)N[C@@H]1CC(CF)(CF)Oc2ccc(F)cc21 [Example 78, 1-[(4R)-6-fluoro-2,2-bis(fluoromethyl)-3,4-dihydro-2H-chromen-4-yl]-3-[(2S)-2-hydroxy-2,3-dihydro-1H-inden-4-yl]urea] | 1400 nM | 12%
